Data reported in ChEMBL document CHEMBL1201862, “PubChem BioAssay data set” (2004).
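Tested at 5 concentrations; 48 h exposure; 96-well plates; endpoints linearly interpolated, else capped at highest concentration. Abbreviation: GI50, concentration required for 50% inhibition of growth.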 Calls of active or inactive are those of the source. No stated cut-off is given here; in the data, active = GI50 up to about 1.1 µM and inactive = higher.

How the values were obtained:
Assay in all cases: NCI anticancer screen, dose series, 48 h
MOLT-4 = tested on: MOLT-4
UACC-257 = tested on: UACC-257
MDA-N = tested on: MDA-N
A498 = tested on: A498
SR = tested on: SR
SF-268 = tested on: SF-268
MCF7 = tested on: MCF7
SF-539 = tested on: SF-539
MDA-MB-435 = tested on: MDA-MB-435
HOP-62 = tested on: HOP-62
SNB-75 = tested on: SNB-75
NCI-H226 = tested on: NCI-H226
NCI-H522 = tested on: NCI-H522
OVCAR-8 = tested on: OVCAR-8
CAKI-1 = tested on: CAKI-1
MDA-MB-231 = tested on: MDA-MB-231
U-251 = tested on: U-251
SK-MEL-2 = tested on: SK-MEL-2
SK-OV-3 = tested on: SK-OV-3

SMILES	GI50 (MOLT-4)	GI50 (UACC-257)	GI50 (MDA-N)	GI50 (A498)	GI50 (SR)	GI50 (SF-268)	GI50 (MCF7)	GI50 (SF-539)	GI50 (MDA-MB-435)	GI50 (HOP-62)	GI50 (SNB-75)	GI50 (NCI-H226)	GI50 (NCI-H522)	GI50 (OVCAR-8)	GI50 (CAKI-1)	GI50 (MDA-MB-231)	GI50 (U-251)	GI50 (SK-MEL-2)	GI50 (SK-OV-3)
O=c1[nH]c(=O)n(C/C=C/CO)nc1Br	> 100 µM (inactive)	> 100 µM (inactive)	> 100 µM (inactive)	> 100 µM (inactive)	> 100 µM (inactive)	> 100 µM (inactive)	> 100 µM (inactive)	> 100 µM (inactive)	> 100 µM (inactive)	> 100 µM (inactive)	> 100 µM (inactive)	> 100 µM (inactive)	> 100 µM (inactive)	> 100 µM (inactive)	> 100 µM (inactive)	> 100 µM (inactive)	> 100 µM (inactive)	> 100 µM (inactive)	–
CCN(CC)CC/N=c1\c2cc(OC)ccc2[nH]c2c([N+](=O)[O-])ccc(NCCN(CC)CC)c12	0.198 µM (active)	4.17 µM (inactive)	1.12 µM (inactive)	2.3 µM (inactive)	0.16 µM (active)	2.27 µM (inactive)	0.698 µM (active)	1.06 µM (active)	1.88 µM (inactive)	1.18 µM (inactive)	1.9 µM (inactive)	0.955 µM (active)	1.14 µM (inactive)	0.482 µM (active)	2.33 µM (inactive)	0.966 µM (active)	1.24 µM (inactive)	2.06 µM (inactive)	3.12 µM (inactive)
COc1c(C(=O)O)cccc1-c1cccc(C(=O)NCCN(CCNC(=O)c2cccc(-c3cccc(C(=O)O)c3OC)c2OC)CCNC(=O)c2cccc(-c3cccc(C(=O)O)c3OC)c2OC)c1OC	36.7 µM (inactive)	62.7 µM (inactive)	5.58 µM (inactive)	31.8 µM (inactive)	10.7 µM (inactive)	74.8 µM (inactive)	37.8 µM (inactive)	37.2 µM (inactive)	11.4 µM (inactive)	58.9 µM (inactive)	25.9 µM (inactive)	32.7 µM (inactive)	33.3 µM (inactive)	63 µM (inactive)	51.6 µM (inactive)	37.6 µM (inactive)	28.5 µM (inactive)	31.8 µM (inactive)	33 µM (inactive)
CCOC1=C(c2ccccc2)N2CCCCC2O1 (stereo not given)	4.27 µM (inactive)	3.46 µM (inactive)	4.03 µM (inactive)	8.73 µM (inactive)	3.71 µM (inactive)	4.34 µM (inactive)	3.76 µM (inactive)	9.29 µM (inactive)	3.25 µM (inactive)	4.6 µM (inactive)	2.83 µM (inactive)	3.42 µM (inactive)	3.38 µM (inactive)	3.89 µM (inactive)	26.5 µM (inactive)	3.61 µM (inactive)	3.35 µM (inactive)	2.25 µM (inactive)	–
C=CCN1C(=O)/C(=C\c2cc(C(C)(C)C)c(O)c(C(C)(C)C)c2)NC1=S	30.7 µM (inactive)	15.6 µM (inactive)	27.4 µM (inactive)	25.2 µM (inactive)	21.1 µM (inactive)	36.1 µM (inactive)	20.7 µM (inactive)	39.5 µM (inactive)	24 µM (inactive)	20.9 µM (inactive)	–	29.3 µM (inactive)	12.4 µM (inactive)	33.9 µM (inactive)	22.3 µM (inactive)	15.9 µM (inactive)	14.3 µM (inactive)	14.1 µM (inactive)	34.1 µM (inactive)
O=[N+]([O-])c1ccc(C(Nc2ccccc2)c2ccc3cccnc3c2O)cc1 (stereo not given)	0.423 µM (active)	13.8 µM (inactive)	23.7 µM (inactive)	24.1 µM (inactive)	0.474 µM (active)	4.46 µM (inactive)	4.83 µM (inactive)	3.72 µM (inactive)	14.4 µM (inactive)	7.48 µM (inactive)	6.67 µM (inactive)	3.78 µM (inactive)	4.24 µM (inactive)	3.85 µM (inactive)	6.25 µM (inactive)	16.2 µM (inactive)	3.55 µM (inactive)	24.3 µM (inactive)	23.8 µM (inactive)
COc1ccc2cc(CNCCCCCCNC(=O)Nc3cccc4ccccc34)ccc2c1	> 100 µM (inactive)	> 100 µM (inactive)	> 100 µM (inactive)	> 100 µM (inactive)	> 100 µM (inactive)	> 100 µM (inactive)	> 100 µM (inactive)	> 100 µM (inactive)	> 100 µM (inactive)	> 100 µM (inactive)	> 100 µM (inactive)	> 100 µM (inactive)	> 100 µM (inactive)	> 100 µM (inactive)	> 100 µM (inactive)	> 100 µM (inactive)	> 100 µM (inactive)	> 100 µM (inactive)	> 100 µM (inactive)
